# Assay results published in PubChem BioAssay (NCI).
# Several values for one entry are separate records, joined by “and”; a condition that tells them apart may be missing. Equal entries are not always repeated.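 Compound exposure: 48 hours, 5 concentrations, 96-well plates. GI50 is the concentration that inhibits growth by half. The concentration for full growth arrest is given as TGI.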
# What was measured:
# Experiment in all cases: DTP human tumour cell line panel, 48 h
# [1] = test system: SN12C renal
# [2] = test system: LOX IMVI melanoma
# [3] = test system: MOLT-4 leukemia
# [4] = test system: SK-MEL-5 melanoma
# [5] = test system: EKVX NSCLC
# [6] = test system: CAKI-1 renal
# [7] = test system: MALME-3M melanoma
# [8] = test system: NCI-H522 lung
# [9] = test system: T-47D breast
# [10] = test system: NCI/ADR-RES ovarian
SMILES,TGI [1] [µM],TGI [2] [µM],TGI [3] [µM],TGI [4] [µM],TGI [5],TGI [6] [µM],TGI [7] [µM],TGI [8] [µM],TGI [9] [µM],TGI [10] [µM],GI50 [6] [µM],GI50 [2] [µM],GI50 [8] [µM],GI50 [3] [µM],GI50 [5] [µM],GI50 [10] [µM],GI50 [1] [µM],GI50 [7] [µM],GI50 [4] [µM],GI50 [9] [µM]
NC(=O)/N=C/c1c(O)c2ccccc2oc1=O,> 100,> 100,> 100,> 100,> 100 µM,–,–,–,–,–,–,–,–,–,–,–,–,–,–,–
C/C(=N\NC(N)=S)c1nc2ncccc2[nH]1,> 100,> 100,> 100,> 100,> 100 µM,> 100,> 100,> 100,> 100,> 100,–,–,–,–,–,–,–,–,–,–
COC(=O)c1c(O)ccc2c1c1c(n2Cc2cccc(C)c2)C(=O)c2ccccc2C1,27.6,67.1,44.5,> 75,10.4 µM,46.3,69.5,–,32.7,> 75,–,–,–,–,–,–,–,–,–,–
COC(=O)C12Oc3ccc(-c4ccc5c(c4O)C(O)=C4C(=O)CC(C)C(O)C4(C(=O)OC)O5)c(O)c3C(O)=C1C(=O)CC(C)C2O (stereo not given),> 100,–,2.9,0.147,1.49 µM,4.54,–,0.309,> 29.1,> 100,–,–,–,–,–,–,–,–,–,–
COc1cc(O)c(Cc2ccccc2O)c(O)c1C(=O)CCc1ccccc1,17,22.9,10.5,9.36,22.5 µM,13,15.8,9.21,–,18.9,–,–,–,–,–,–,–,–,–,–
COc1ccc2c3/c(=C\c4ccc(N(C)C)cc4)c4ccccc4n3[n+](C)c2c1,–,> 100,27.9,–,4.16 µM,2.51,–,> 100,–,> 55.8,0.723,0.094,0.182,0.0944,0.11,4.31,–,–,–,–
O=C1C(=C([O-])c2ccccc2)C(=O)c2ccccc21.O=C1C(=C([O-])c2ccccc2)C(=O)c2ccccc21.[Ni+2],> 100,> 100,–,54.9,> 100 µM,> 100,> 100,–,–,–,33.9,34.6,–,–,44.4,–,51.3,75.4,18.2,–
Cn1c(=O)c2[nH]c(SC/C(=N/O)c3ccc(Br)cc3)nc2n(C)c1=O,–,> 100,64,–,> 100 µM,–,5.22,–,–,–,–,3.12,–,20.4,2.76,–,–,2.4,–,–
CC1OC(O[C@@H]2C=C3CC[C@@H]4[C@H](CC[C@]5(C)[C@@H](c6ccc(=O)oc6)CC[C@]45O)[C@@]3(C)CC2)C(O)C(OC2OC(CO)C(O)C(O)C2O)C1O (stereo not given in full),–,–,–,0.0175,0.00534 µM and 0.0254 µM,0.0015,0.0143,0.000427,–,–,–,–,–,–,0.000339,–,–,0.000628,0.00014,0.00216
CC(=O)OCC1OC(N=[N+]=[N-])C(OC(C)=O)C(OC(C)=O)C1OC1OC(COC(C)=O)C(OC(C)=O)C(OC(C)=O)C1OC(C)=O (stereo not given),> 100,> 100,> 100,> 100,> 100 µM,> 100,> 100,> 100,–,–,–,–,–,–,–,–,–,–,–,–
O=c1[nH]c(=O)n(C2CC(O)C(CO)O2)cc1Br (stereo not given),> 100,> 100,> 100,> 100,> 100 µM,> 100,> 100,> 100,> 100,> 100,–,–,–,–,–,–,–,–,–,–
Cc1cc(O)c2c(c1)C(C1c3cccc(O)c3C(=O)c3c(O)cc(C)cc31)c1cccc(O)c1C2=O (stereo not given),3.23,11.4,12.5,0.557,4.15 µM,7.06,1.25,3.44,2.98,9.2,–,–,–,–,–,–,–,–,–,–
C=C1CCOC2(C(O)C(C)(O)CO)NC(=O)C1(O)NC2=O (stereo not given),> 100,> 100,> 100,> 100,> 100 µM,> 100,> 100,> 100,> 100,> 100,–,–,–,–,–,–,–,–,–,–
